This note sets out measurements from ChEMBL document CHEMBL1141558, “Design and synthesis of a siderophore conjugate as a potent PSMA inhibitor and potential diagnostic agent for prostate cancer” (Bioorg Med Chem, 2008).

The target of test [1] is T1, Glutamate carboxypeptidase 2 (Homo sapiens, UniProt Q04609). Kind of test: Inhibition of NAALADase expressed in LNCaP human prostate cancer cells. It counts as cell-based.
In test [2] the target is T1, Glutamate carboxypeptidase 2. The experiment in a line: Inhibition of human recombinant NAALADase.

T1 sequence (Q04609 whole entry): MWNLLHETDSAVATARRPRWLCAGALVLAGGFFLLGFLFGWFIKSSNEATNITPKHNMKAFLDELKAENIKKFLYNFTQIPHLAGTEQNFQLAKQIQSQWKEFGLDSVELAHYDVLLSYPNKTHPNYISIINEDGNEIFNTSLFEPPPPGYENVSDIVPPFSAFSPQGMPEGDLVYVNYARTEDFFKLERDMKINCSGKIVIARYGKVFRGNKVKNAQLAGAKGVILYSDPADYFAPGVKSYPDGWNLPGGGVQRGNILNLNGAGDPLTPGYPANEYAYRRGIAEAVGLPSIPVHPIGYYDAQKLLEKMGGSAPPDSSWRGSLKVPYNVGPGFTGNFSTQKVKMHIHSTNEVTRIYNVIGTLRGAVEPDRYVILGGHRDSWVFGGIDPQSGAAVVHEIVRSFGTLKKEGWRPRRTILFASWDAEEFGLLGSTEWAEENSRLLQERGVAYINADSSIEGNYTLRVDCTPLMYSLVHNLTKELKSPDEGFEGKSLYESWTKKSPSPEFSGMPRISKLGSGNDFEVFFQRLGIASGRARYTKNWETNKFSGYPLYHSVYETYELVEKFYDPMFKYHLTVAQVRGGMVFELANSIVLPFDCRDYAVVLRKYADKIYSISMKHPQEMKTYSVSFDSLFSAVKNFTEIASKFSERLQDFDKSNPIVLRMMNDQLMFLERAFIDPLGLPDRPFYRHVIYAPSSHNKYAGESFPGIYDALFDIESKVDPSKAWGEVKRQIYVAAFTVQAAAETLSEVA

What is called IC50 is the concentration at which inhibition is half-maximal. In turn, `O=C(O)CCC(CP(=O)(O)OCc1ccccc1)C(=O)O` (configuration not stated) returned a 50% inhibitory concentration (IC50) in test [1] of 12.5 nM.

In the case of `CC(=O)N[C@@H](CCCN(O)C(C)=O)C(=O)N[C@@H](CCCN(O)C(C)=O)C(=O)N[C@@H](CCCN(O)C(C)=O)C(=O)NCCCC(=O)c1ccc(C(=O)NCC(=O)Nc2ccc(CCOP(=O)(O)C[C@@H](CCC(=O)O)C(=O)O)cc2)cc1`, in test [2], the half-maximal inhibitory concentration (IC50) is 4 nM.
